From patent publication US20240400555A1 (Initial Therapeutics, Inc., priority 2023, published 2024)

How the values were obtained:
[1] = system: NB4 cells and Nalm-6 cells; conditions: APL-derived NB4 cells and ALL-derived Nalm-6 cells; cited from earlier work
[2] = system: human lung cancer cell lines (H23 and H292); conditions: cited from earlier work
c-MYC [3] = assay: In Vitro Translation Dose-Response Curves (In Vitro Multiple Point Translation Screening Assay); assay type: biochemical; conditions: IVT dose response curve
Procedure: HeLa S3 cell Preparation. HeLa S3 cells were grown essentially as described in Mikami 2010. Frozen aliquots of banked HeLa cells (ATCC #CCL-2.2) were thawed and diluted into agitated suspension culture in CD293 medium supplemented with 10% HI FBS, 1× GlutaMAX, and 1× Pen/Strep. Cells were expanded in suspension over 10 passages to inoculate 3×20 L wave bag bioreactors and cultured for approximately 48 h to a final density of 1.81×10^6 viable cells per mL. Cells were pelleted by centrifugation at 2500 RCF for 15 min at 4° C. Two 1 L pellets were combined in 32 sets and re-pelleted in 50 ml conical tubes, resulting in 32×10 mL cell pellets weighing approximately 10 g each. Final pellets were snap frozen in liquid nitrogen and stored at −80° C. (cell culture, harvesting, and cryo-preservation completed at LakePharma). Cell pellets were subsequently thawed at RT, resuspended in 15 mL wash buffer (35 mM HEPES-KOH, pH 7.5, 140 mM NaCl, and 11 mM glucose), then re-pelleted by centrifugation at 2500 RCF for 10 min at 4° C. The supernatant was discarded and the wash step repeated 2×. The pellets were resuspended each pellet in 10 mL in hypertonic extraction buffer (20 mM HEPES-KOH, pH 7.5, 45 mM potassium acetate, 45 mM KCl, 1.8 mM magnesium acetate, and 1 mM TCEP added directly before use). The cell suspension was transferred to a cell disruption vessel (Parr Instrument Company, model 4636, 1850 mL capacity) and incubated for 15 min on ice, then sealed under nitrogen (200 PSI) for 1.5 h. The cell homogenates were released through a needle valve and collected on ice, then diluted with 1/29 volume high potassium buffer (20 mM HEPES-KOH, pH 7.5, 945 mM potassium acetate, 945 mM KCl, 1.8 mM magnesium acetate, and 1 mM TCEP). The cell homogenates were then clarified by centrifugation at 2500 RCF for 10 min at 4° C. and the supernatant collected. The clarification step was repeated 3×. The resulting cell extracts (675 mL, 2.5 mg/mL total protein) were aliquoted and flash frozen in liquid nitrogen and stored at −80° C. until use.
Translation reactions were incubated for 20 min at 30° C. Nanoluciferase luminescence was measured by combining 2 μL of IVT reaction with 20 μL of prepared reagent from the Nanoglo assay kit (Promega). A negative control of 0.5% DMSO and positive control of 50 μM puromycin were used to define to assay window.
Dose response curve IVTs were performed similar to the single point IVT screening with the following changes. The desired concentration curves were plated into 384 well plates from DMSO stocks using a Tecan D300e dispenser. […] After reaction incubation and luminescence measurement, dose-response curves were fit to the data using Prism (Graphpad) or Collaborative Drug Discovery analysis programs.

c-MYC [4] = assay: Cellular c-MYC Alpha Screen; assay type: cell-based; conditions: Homo sapiens; c-MYC alpha screen dose response, HCT-116 reporter cells, 24 h; read-out: Geomean pIC50 (converted)
Procedure: HCT-116 Firefly-luciferase reporter cells (BPS bioscience) were seeded in 96-well tissue-culture treated sterile plates (Greiner Bio-One) at 7.5e4 cells/mL in 100 μL complete growth media (McCoy's 5A+10% FBS, +1% Pen-Strep, +1% G418). Cells were incubated at 37° C. with 5% CO2 for 24 h then treated with 3× compound solution in 50 μL complete growth media for a final volume of 150 μL per well with 0.2% DMSO. After 24 h incubation at 37° C. with 5% CO2, plates were allowed to equilibrate to RT for 20 min; the media was then aspirated, and the plate washed once with 200 μL 1×PBS. Cells were then lysed by addition of 1× Alpha Screen lysis buffer (50 μL) from the Perkin Elmer alpha Screen c-MYC detection kit (Part number 6760611C). The lysate is then transferred to ice and advanced to the Alpha Screen detection assay or sealed with adhesive foil and stored at −80° C. for up to 2 weeks before use.
The alpha screen detection assay was then performed as per the vendors instructions. Briefly the acceptor bead mix was prepared as per vendors instructions. 30 ul of the cell lysate is transferred to a 96-well white assay plate. 15 ul of the acceptor mix was added to each well and incubated in the dark for at least one hour. Then the donor bead mix was prepared as per vendors instructions and 15 ul of this was added to the assay plate. The plate was then incubated at RT for one hour in the dark. The plate was then read in the SpectraMax i3x plate reader (Molecular Devices) using the alpha screen module (excitation wavelength 680 emission wavelength 615) and analyzed using GraphPad Prism 9 software.

[5] = system: HCT-116 Firefly-luciferase reporter cells; assay: Cellular c-MYC Reporter Assay; assay type: cell-based; conditions: Homo sapiens, HCT-116 Firefly-luciferase reporter cells, 24 h
In short: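 Reporter cells seeded at 5e4 cells/mL in McCoy's 5A with 10% FBS and G418, dosed after 4–6 h at 0.2% final DMSO. After 24 h at 37 °C, luciferase luminescence was read with ONE-Glo.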

[6] = system: prostate cancer cell lines PC-3 and 22 Rv1; conditions: cited from earlier work
murine models of MM = conditions: three murine models; cited from earlier work
tumor growth = conditions: mice; cited from earlier work
xenografts of human MM = conditions: in vivo; cited from earlier work
MM cell = conditions: in vitro; cited from earlier work

CCc1ccc(/C=C2/SC(=S)NC2=O)cc1 [Compound 10058-F4]
viability of leukemia cells [1]: reduced viability

CCc1ccc(O)c(CN(C)Cc2cc(CC)ccc2O)c1 [EMD, N, N-bis(5-ethyl-2-hydroxybenzyl) methylamine]
cytotoxicity toward human lung cancer cell lines [2]: strong cytotoxicity

Cc1cccc2ccnc(N(C(=O)c3ccc(-n4nnc5cccnc54)cc3)[C@@H]3CCCNC3)c12 [Example 50, (R)-4-(3H-[1,2,3]triazolo[4,5-b]pyridin-3-yl)-N-(8-methylisoquinolin-1-yl)-N-(piperidin-3-yl)benzamide]
Geomean pIC50 (c-MYC [3]): 6.0 (n = 4) | IC50 (c-MYC [4]): 0.158 µM

Cc1cccc2ccnc(N(C(=O)c3ccc(Nc4ncccn4)cc3)[C@@H]3CCCNC3)c12 [Example 51, (R)-N-(8-methylisoquinolin-1-yl)-N-(piperidin-3-yl)-4-(pyrimidin-2-ylamino)benzamide]
Geomean pIC50 (c-MYC [3]): 4.8 (n = 2) | EC50 ([5]; HCT-116, 24 h, read-out: Geomean pEC50 (converted)): 0.251 µM | IC50 (c-MYC [4]): 1 µM

Cc1cc(C2CCN(C(=O)N(c3nccc4cccc(C)c34)[C@@H]3CCCNC3)CC2)on1 [Example 243, (R)—N-(8-methylisoquinolin-1-yl)-4-(3-methylisoxazol-5-yl)-N-(piperidin-3-yl)piperidine-1-carboxamide]
IC50 ([5]; untitled table following Table 8a, read-out: pIC50 (converted)): 0.525 µM | IC50 (c-MYC [4]): 0.398 µM

C=CCc1ccc(O)c(-c2ccc(O)c(CC=C)c2)c1 [Honokiol]
anti-cancer activity against prostate cancer cell lines [6]: significant anti-cancer activity | levels of total and/or phosphorylated c-MYC protein and its mRNA expression [6]: marked decrease

Cc1sc2c(c1C)C(c1ccc(Cl)cc1)=N[C@@H](CC(=O)OC(C)(C)C)c1nnc(C)n1-2 [JQ1]
efficacy in murine models of MM (murine models of MM): efficacious in three murine models of MM

Cn1nc(C(F)(F)F)cc1-c1ccc(OCc2ccc(Cl)cc2)c(-c2cc(C(F)(F)F)cc(C(F)(F)F)c2)c1O [MYCi361]
in vivo tumor growth (tumor growth): suppressed in vivo tumor growth in mice

O=C(c1cc(Cc2n[nH]c(=O)c3ccccc23)ccc1F)N1CCN(C(=O)C2CC2)CC1 [olaparib]
efficacy against xenografts of human MM (xenografts of human MM): effective against in vivo xenografts of human MM | MM cell viability (MM cell): impaired MM cell viability in vitro
